Data taken from patent publication US20250197641A1, “OPTICAL ABSORBENT” (priority 2023, published 2025).

Key:
Assay type in all cases: physicochemical
[1] = Pyrolysis temperature (Td 5%) analysis by TGA; conditions: 25-800° C., 10° C./min, N2
Protocol: The Td 5% is a value obtained through TGA (Thermogravimetric Analysis) analysis. It is the value (Td 5%) at a weight loss of 5% confirmed under the conditions of a temperature range of 25° C. to 800° C., a temperature increase rate of 10° C./min, and a nitrogen (N2) atmosphere of 60 cm^3/min.
Thermogravimetric Analysis (TGA) of the chemical compound was performed by using Scinco's TGA N-1000 equipment. The analysis was performed by using approximately 3 mg of sample (chemical compound) and the analysis was conducted under conditions of a temperature range of 25° C. to 800° C., a temperature increase rate of 10° C./min, and nitrogen (N2) atmosphere of 60 cm^3/min. The value at […] (Td 5%) was used as the Td decomposition temperature.

[2] = Absorption spectra of absorption membrane before and after high temperature/high humidity evaluation (Test Example 2); conditions: 85% relative humidity, 120 hours; for ΔA = 100×(Af−Ai)/Ai / Δλ = 100×(λf−λi)λi: 85° C.; for Af, transmittance at the absorption maximum wavelength / λf, absorption maximum wavelength: absorption membrane after 85° C.; for Ai, transmittance at the absorption maximum wavelength / λi, absorption maximum wavelength: absorption membrane before 85° C.
Source text: FIGS. 4 to 6 are the absorption spectra of the absorption membranes prepared in Test Example 1 using the absorbents of Embodiments 1 to 3, respectively. FIGS. 7 to 9 are the absorption spectrum of the absorption membrane prepared in Test Example using the absorbents of Comparative Examples 1 to 3, respectively. In the FIGS., the spectra indicated before reliability is the result immediately after preparing the absorption membrane, and the spectra indicated after reliability is the result after high temperature/high humidity evaluation was performed on the absorption membrane. The high temperature/high humidity evaluation is an evaluation where the absorption membrane is maintained at a temperature of 85° C. under a relative humidity of 85% for 120 hours. In Tables 4 and 5, Af is the transmittance at the absorption maximum wavelength of the absorption membrane maintained at 85° C. under 85% relative humidity for 120 hours and λf is the absorption maximum wavelength for after case. Ai is the transmittance at the absorption maximum wavelength of the absorption membrane before being maintained at 85° C. under 85% relative humidity for 120 hours and λi is the absorption maximum wavelength for before case. In Tables 4 and 5, ΔA is a value calculated as 100×(Af−Ai)/Ai, and Δλ is a value calculated as 100×(λf−λi)λi.

[3] = Absorption maximum measurement; conditions: chloroform, about 10^-5 M
Protocol: The maximum absorption was evaluated by a conventional method. Specifically, the sample was dissolved in chloroform solvent at a concentration of about 10^−5 M and then evaluated using measuring equipment (Agilent, Varian Cary 4000).

[4] = Transmittance of absorption membrane before and after reliability evaluation (Test Example 1); conditions: for 425~465 nm Tave, Δ / 425~465 nm Tmin, Δ / 466~480 nm Tave, Δ / 466~480 nm Tmin, Δ / 480~560 nm Tave, Δ / λmax Tmax (transmittance at the absorption maximum), Δ: change before/after 85° C.; for 425~465 nm Tave, Δ / 425~465 nm Tmin, Δ / 466~480 nm Tave, Δ / 466~480 nm Tmin, Δ / 480~560 nm Tave, Δ / λmax Tmax (transmittance at the absorption maximum), Δ / 425~465 nm Tave, A / 425~465 nm Tmin, A / 466~480 nm Tave, A / 466~480 nm Tmin, A / 480~560 nm Tave, A: 85% RH, 120 hours; for 425~465 nm Tave, B / 425~465 nm Tmin, B / 466~480 nm Tave, B / 466~480 nm Tmin, B / 480~560 nm Tave, B: silicone resin membrane about 6 μm, before reliability evaluation; for 425~465 nm Tave, A / 425~465 nm Tmin, A / 466~480 nm Tave, A / 466~480 nm Tmin, A / 480~560 nm Tave, A: silicone resin membrane, after 85° C.
Protocol: The transmittance spectrum was measured using a spectrophotometer (Manufacturer: Perkinelmer, Product Name: Lambda 750 Spectrophotometer) on a specimen obtained by cutting the measurement object (e.g., an absorption membrane) so that the width and height were 10 mm and 10 mm, respectively. The transmittance spectrum was measured for each wavelength according to the equipment manual. The specimen was placed on a straight line between a measuring beam of the spectrophotometer and a detector and the transmittance spectrum was confirmed by setting the incident angle of the measuring beam to 0°. The incident angle of 0° is a direction substantially parallel to the surface normal direction of the specimen. The average transmittance within a certain wavelength range in the transmittance spectrum is the result of measuring the transmittance at each wavelength while increasing the wavelength by 1 nm starting from the shortest wavelength in the wavelength range, and then calculating the arithmetic average of the measured transmittances. The maximum transmittance is the maximum transmittance among the transmittances measured while increasing the wavelength by 1 nm and the minimum transmittance is the minimum transmittance among the transmittances measured while increasing the wavelength by 1 nm. For example, the average transmittance within the wavelength range of 350 nm to 360 nm is the arithmetic mean of the transmittance measured at the wavelength of 350 nm, 351 nm, 352 nm, 353 nm, 354 nm, 355 nm, 356 nm, 357 nm, 358 nm, 359 nm, and 360 nm. The maximum transmittance within the wavelength range of 350 nm to 360 nm is the highest transmittance measured at wavelengths of 350 nm, 351 nm, 352 nm, 353 nm, 354 nm, 355 nm, 356 nm, 357 nm, 358 nm, 359 nm and 360 nm and the minimum transmittance within the wavelength range of 350 nm to 360 nm is the lowest transmittance among the transmittances measured at wavelengths of 350 nm, 351 nm, 352 nm, 353 nm, 354 nm, 355 nm, 356 nm, 357 nm, 358 nm, 359 nm, and 360 nm.
A coating solution was prepared by mixing silicone resin (Dow Chemical, RSN-0217), absorbent, and solvent (cyclohexanone) as resin components. The mixing ratio of the resin component, absorbent, and solvent was set to be 69.3:0.99:29.7 in weight ratio (resin:absorbent:solvent).
The coating solution was coated on a transparent substrate (a glass substrate manufactured by SCHOTT) and maintained at 140° C. for about 2 hours to form an absorption membrane with a thickness of about 6 μm.
Tables 2 and 3 below summarize the transmittance of the absorption membrane before and after reliability evaluation in the ultraviolet and near-infrared regions. The reliability evaluation is an evaluation of maintaining the absorption membrane at 85° C. and under 85% relative humidity condition for 120 hours. In Table 2, B refers to the result before performing the reliability evaluation and A refers to the result after performing the reliability evaluation. Additionally, in Table 2, λmax means the transmittance at the absorption maximum.
In Tables 2 and 3, Δ is the rate of change (%) of each characteristic before and after the reliability evaluation, calculated as 100×[…]/B, where […], B is the value indicated by B in Table 2. In Table 2, Tmax refers to the highest transmittance within the corresponding wavelength region, Tave refers to the average transmittance within the corresponding wavelength region, and Tmin refers to the minimum transmittance within the corresponding wavelength region.

[5] = Solubility of the absorbent in methylene chloride; conditions: room temperature (about 25° C.)
Protocol: The solubility of the absorbent was evaluated. Solubility was determined based on the following criteria by evaluating the solubility of the absorbent in the solvent (MC, Methylene Chloride) at room temperature (about 25° C.).

Structure (SMILES) | Td 5% [1] | ΔA = 100×(Af−Ai)/Ai [2] | Δλ = 100×(λf−λi)λi [2] | Af, transmittance at the absorption maximum wavelength [2] | λf, absorption maximum wavelength [2] | Ai, transmittance at the absorption maximum wavelength [2] | λi, absorption maximum wavelength [2] | Maximum Absorption Wavelength [3] | 425~465 nm Tave, Δ [4] | 425~465 nm Tmin, Δ [4] | 466~480 nm Tave, Δ [4] | 466~480 nm Tmin, Δ [4] | 480~560 nm Tave, Δ [4] | λmax Tmax (transmittance at the absorption maximum), Δ [4] | 425~465 nm Tave, B [4] | 425~465 nm Tmin, B [4] | 466~480 nm Tave, B [4] | 466~480 nm Tmin, B [4] | 480~560 nm Tave, B [4] | 425~465 nm Tave, A [4] | also measured
CC1(C)C(/C=C/C2=C(Cl)C(=C/C=C3\N(C[Si](C)(C)C)c4ccccc4C3(C)C)/CC2)=[N+](C[Si](C)(C)C)c2ccccc21 [Embodiment 3] | 216 °C | 6.7% | 0% | 12.3% | 823 nm | 11.5% | 82. nm | 817 nm | 0.1% | 0.1% | 0.1% | 0.1% | 0. % | 0.8% | 87.8% | 86.8% | 89.4% | 88.1% | 91% | 87.9% | 425~465 nm Tmin, A [4]: 87%; 466~480 nm Tave, A [4]: 89.5%; 466~480 nm Tmin, A [4]: 88.2%; 480~560 nm Tave, A [4]: 91%
CCCCN1\C(=C/C=C/C=C/C=C/C2=[N+](CCCC)c3ccc4ccccc4c3C2(C)C)C(C)(C)c2c1ccc1ccccc21 [Comparative Example 2] | 211 °C | 27.1% | 13% | 59.8% | 785 nm | 47.1% | 784 nm | 801 nm | 0% | −0.2% | 0.1% | −0.1% | −0.3% | 12.8% | 89.6% | 88.9% | 90.2% | 89.8% | 91.2% | 89.6% | 425~465 nm Tmin, A [4]: 88.7%; 466~480 nm Tave, A [4]: 90.2%; 466~480 nm Tmin, A [4]: 89.7%; 480~560 nm Tave, A [4]: 90.9%; Solubility [5]: A (When solubility is 1 mass % or more)
CC1(C)C(/C=C/C=C/C=C/C=C2\N(C[Si](C)(C)C)c3ccc4ccccc4c3C2(C)C)=[N+](C[Si](C)(C)C)c2ccc3ccccc3c21 [Embodiment 2] | 230 °C | 4.2% | 0% | 34.9% | 790 nm | 33.5% | 790 nm | 803 nm | 0.1% | 0.1% | 0% | 0.1% | 0% | 1.4% | 89.5% | 88.6% | 90.3% | 89.8% | 91.3% | 89.5% | 425~465 nm Tmin, A [4]: 88.7%; 466~480 nm Tave, A [4]: 90.3%; 466~480 nm Tmin, A [4]: 89.8%; 480~560 nm Tave, A [4]: 91.3%
CC1(C)C(/C=C/C=C/C=C/C=C2\N(C[Si](C)(C)C)c3ccccc3C2(C)C)=[N+](C[Si](C)(C)C)c2ccccc21 [Embodiment 1] | 231 °C | 6.6% | 0% | 12.3% | 758 nm | 11.5% | 758 nm | 763 nm | 0% | 0.1% | 0% | 0% | 0% | 0.8% | 89.7% | 87.9% | 91.1% | 90.7% | 91.4% | 89.8% | 425~465 nm Tmin, A [4]: 88%; 466~480 nm Tave, A [4]: 91.1%; 466~480 nm Tmin, A [4]: 90.7%; 480~560 nm Tave, A [4]: 91.4%
